Data on 8 molecules can be found in ChEMBL document CHEMBL1201862, “PubChem BioAssay data set” (2004).

Assay [1] addresses Tyrosine-protein phosphatase non-receptor type 11 (Homo sapiens, UniProt Q06124). Briefly: SHP2 phosphatase inhibition, dose response, selectivity assay for STEP inhibitor project, biochemical (AID 602367). It counts as functional. The conditions noted are these: read-out: IC50_Mean.
Assay [2] has as its target Dual specificity protein phosphatase 3 (Homo sapiens, UniProt P51452). Briefly: VHR phosphatase inhibition, dose response, selectivity assay for STEP inhibitor project, biochemical (AID 602374). It counts as functional. The conditions noted are these: read-out: IC50_Mean.
In assay [3] the target is Tyrosine-protein phosphatase non-receptor type 5 (Homo sapiens, UniProt P54829). The experiment in a line: STEP phosphatase inhibitors, confirmation, biochemical, fluorescence intensity, uHTS hits (AID 602372). The conditions noted are these: read-out: IC50_Mean. It counts as functional.
Chain of Tyrosine-protein phosphatase non-receptor type 5 (P54829 whole entry, the tested form may be a part): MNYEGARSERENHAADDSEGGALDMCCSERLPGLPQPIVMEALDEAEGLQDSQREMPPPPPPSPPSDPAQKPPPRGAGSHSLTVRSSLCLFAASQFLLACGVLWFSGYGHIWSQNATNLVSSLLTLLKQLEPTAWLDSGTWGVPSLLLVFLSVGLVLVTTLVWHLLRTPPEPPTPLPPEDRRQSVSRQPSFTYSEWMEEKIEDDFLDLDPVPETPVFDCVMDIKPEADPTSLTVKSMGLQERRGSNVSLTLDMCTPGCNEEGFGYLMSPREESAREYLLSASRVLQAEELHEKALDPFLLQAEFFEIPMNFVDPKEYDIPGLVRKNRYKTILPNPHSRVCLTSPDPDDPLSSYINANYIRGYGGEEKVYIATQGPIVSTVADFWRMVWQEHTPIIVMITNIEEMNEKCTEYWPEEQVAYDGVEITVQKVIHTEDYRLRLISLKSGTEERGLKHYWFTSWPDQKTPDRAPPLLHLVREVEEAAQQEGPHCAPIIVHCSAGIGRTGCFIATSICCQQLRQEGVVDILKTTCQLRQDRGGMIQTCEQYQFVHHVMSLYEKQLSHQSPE
Assay [4] concerns the target T1, Carboxy-terminal domain RNA polymerase II polypeptide A small phosphatase 1 (Homo sapiens, UniProt Q9GZU7).
T1 sequence (Q9GZU7 whole entry): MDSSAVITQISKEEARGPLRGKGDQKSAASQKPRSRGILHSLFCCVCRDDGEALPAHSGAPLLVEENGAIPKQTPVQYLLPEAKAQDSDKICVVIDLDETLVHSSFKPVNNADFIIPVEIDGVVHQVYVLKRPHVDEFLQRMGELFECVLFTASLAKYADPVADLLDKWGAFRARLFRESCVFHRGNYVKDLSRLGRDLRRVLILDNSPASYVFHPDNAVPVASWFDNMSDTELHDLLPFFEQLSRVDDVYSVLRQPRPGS
Briefly: inhibitors of CTDSP1, concentration-response testing, biochemical assay, absorbance-based, actives from ultra-high-throughput screening (AID 540297). Type of assay: functional.

The target of a further assay is T2, Caspase-6 (Homo sapiens, UniProt P55212).
T2 sequence (P55212 whole entry): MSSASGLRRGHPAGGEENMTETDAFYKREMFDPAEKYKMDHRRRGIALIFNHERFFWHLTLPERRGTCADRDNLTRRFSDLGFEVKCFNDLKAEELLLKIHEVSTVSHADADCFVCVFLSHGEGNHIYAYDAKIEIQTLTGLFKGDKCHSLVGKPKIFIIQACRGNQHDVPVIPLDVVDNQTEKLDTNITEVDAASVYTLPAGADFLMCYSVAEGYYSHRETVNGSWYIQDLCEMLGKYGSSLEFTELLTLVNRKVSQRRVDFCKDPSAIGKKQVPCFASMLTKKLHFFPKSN
Briefly: human caspase-6 inhibitors, dose response, biochemical, VEID-R110 fluorescence, cherry-pick (AID 720632).

Assay [5] addresses T3, Low molecular weight phosphotyrosine protein phosphatase (Homo sapiens, UniProt P24666).
T3 sequence (P24666 whole entry): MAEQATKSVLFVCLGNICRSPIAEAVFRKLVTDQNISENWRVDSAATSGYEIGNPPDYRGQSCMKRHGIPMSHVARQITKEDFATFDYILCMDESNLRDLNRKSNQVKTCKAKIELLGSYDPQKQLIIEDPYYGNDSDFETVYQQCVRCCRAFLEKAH
It counts as functional. The note with it: read-out: IC50_Mean.

Assay [6] addresses T3, Low molecular weight phosphotyrosine protein phosphatase. Type of assay: functional. The note with it: read-out: IC50_Mean. This is another data set of the same source.
Assay [7] addresses Photoreceptor-specific nuclear receptor (Homo sapiens, UniProt Q9Y5X4). It counts as functional, cell-based.
Assay [8] has as its target T4, COUP transcription factor 2 (Homo sapiens, UniProt P24468).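 Also: HEK293 cells transiently cotransfected with COUP-TFII expression vector and reporter; luciferase reporter luminescence driven by COUP-TFII from the pX2-168 reporter plasmid.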
T4 sequence (P24468 whole entry): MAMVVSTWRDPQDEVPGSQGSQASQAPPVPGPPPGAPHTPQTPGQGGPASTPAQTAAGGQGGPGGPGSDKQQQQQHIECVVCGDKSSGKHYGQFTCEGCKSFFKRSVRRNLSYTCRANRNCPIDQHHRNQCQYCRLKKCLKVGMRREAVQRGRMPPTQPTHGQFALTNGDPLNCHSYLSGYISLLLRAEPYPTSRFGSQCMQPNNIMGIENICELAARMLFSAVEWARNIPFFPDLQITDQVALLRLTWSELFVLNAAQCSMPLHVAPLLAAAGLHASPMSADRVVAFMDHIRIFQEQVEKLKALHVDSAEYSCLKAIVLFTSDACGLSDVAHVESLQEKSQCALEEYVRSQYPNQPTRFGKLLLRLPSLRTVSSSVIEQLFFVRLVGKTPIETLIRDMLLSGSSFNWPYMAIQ
The experiment in a line: Luminescence-based cell-based high throughput dose response assay to identify inhibitors of COUP-TFII (NR2F2). It counts as functional.

The target of assay [9] is T5, Small ubiquitin-related modifier 1 (Homo sapiens, UniProt P63165). Briefly: inhibitors of SUMO1 peptide binding, dose response, biochemical, fluorescence polarization, uHTS hits (AID 624382). It counts as functional. The conditions noted are these: read-out: IC50_Mean. In general terms: Fluorescence polarisation rises when a labelled molecule tumbles more slowly, as on binding a larger partner.
T5 sequence (P63165 whole entry): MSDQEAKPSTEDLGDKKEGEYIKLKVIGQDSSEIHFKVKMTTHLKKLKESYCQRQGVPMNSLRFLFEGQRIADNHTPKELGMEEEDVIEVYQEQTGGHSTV

Assay [10] addresses T6, Probable nicotinate-nucleotide adenylyltransferase (Staphylococcus aureus (strain N315), UniProt P65502). Type of assay: functional, Staphylococcus aureus subsp. aureus N315.
For assay [11], the target named is T5, Small ubiquitin-related modifier 1. Briefly: inhibitors of SUMO1 partner interactions, dose response, biochemical, FRET (AID 624383). The conditions noted are these: read-out: IC50_Mean. Type of assay: functional.
Assay [12] in a line: HeLa cell cytotoxicity, dose response, cytotoxicity control for MgcRacGAP inhibitor project (AID 624300). Type of assay: functional.
Assay [13] addresses T7, Rac GTPase-activating protein 1 (Homo sapiens, UniProt Q9H0H5).
T7 sequence (Q9H0H5 whole entry): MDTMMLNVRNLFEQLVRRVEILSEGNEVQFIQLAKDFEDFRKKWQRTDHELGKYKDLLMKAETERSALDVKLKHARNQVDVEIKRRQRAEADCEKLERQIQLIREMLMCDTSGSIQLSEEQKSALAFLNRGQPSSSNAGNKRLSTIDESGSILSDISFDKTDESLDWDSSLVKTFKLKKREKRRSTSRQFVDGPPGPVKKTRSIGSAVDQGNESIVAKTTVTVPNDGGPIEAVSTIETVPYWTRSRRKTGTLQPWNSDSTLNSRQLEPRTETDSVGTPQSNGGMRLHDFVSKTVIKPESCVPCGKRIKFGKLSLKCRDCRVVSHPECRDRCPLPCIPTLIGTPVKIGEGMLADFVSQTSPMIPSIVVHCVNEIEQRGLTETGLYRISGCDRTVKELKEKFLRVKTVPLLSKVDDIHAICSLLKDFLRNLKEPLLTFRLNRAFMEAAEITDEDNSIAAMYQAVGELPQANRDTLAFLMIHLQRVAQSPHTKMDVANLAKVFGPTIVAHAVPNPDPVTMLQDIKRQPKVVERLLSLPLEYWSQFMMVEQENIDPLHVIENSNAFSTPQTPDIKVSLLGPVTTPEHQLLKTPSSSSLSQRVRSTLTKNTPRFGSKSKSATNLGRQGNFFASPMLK
The experiment in a line: MgcRacGAP GTPase-activating activity inhibitors, confirmation, biochemical, ADP Hunter fluorescence, primary and confirmatory (AID 624330). It counts as functional.

For assay [14], the target named is T6, Probable nicotinate-nucleotide adenylyltransferase. It counts as functional, Staphylococcus aureus subsp. aureus N315. The note with it: read-out: IC50_Mean.
Assay [15] concerns the target T8, Aryl hydrocarbon receptor (Homo sapiens, UniProt P35869).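 Also: confirmatory quantitative high-throughput screen measuring activation of the AhR signaling pathway.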
T8 sequence (P35869 whole entry): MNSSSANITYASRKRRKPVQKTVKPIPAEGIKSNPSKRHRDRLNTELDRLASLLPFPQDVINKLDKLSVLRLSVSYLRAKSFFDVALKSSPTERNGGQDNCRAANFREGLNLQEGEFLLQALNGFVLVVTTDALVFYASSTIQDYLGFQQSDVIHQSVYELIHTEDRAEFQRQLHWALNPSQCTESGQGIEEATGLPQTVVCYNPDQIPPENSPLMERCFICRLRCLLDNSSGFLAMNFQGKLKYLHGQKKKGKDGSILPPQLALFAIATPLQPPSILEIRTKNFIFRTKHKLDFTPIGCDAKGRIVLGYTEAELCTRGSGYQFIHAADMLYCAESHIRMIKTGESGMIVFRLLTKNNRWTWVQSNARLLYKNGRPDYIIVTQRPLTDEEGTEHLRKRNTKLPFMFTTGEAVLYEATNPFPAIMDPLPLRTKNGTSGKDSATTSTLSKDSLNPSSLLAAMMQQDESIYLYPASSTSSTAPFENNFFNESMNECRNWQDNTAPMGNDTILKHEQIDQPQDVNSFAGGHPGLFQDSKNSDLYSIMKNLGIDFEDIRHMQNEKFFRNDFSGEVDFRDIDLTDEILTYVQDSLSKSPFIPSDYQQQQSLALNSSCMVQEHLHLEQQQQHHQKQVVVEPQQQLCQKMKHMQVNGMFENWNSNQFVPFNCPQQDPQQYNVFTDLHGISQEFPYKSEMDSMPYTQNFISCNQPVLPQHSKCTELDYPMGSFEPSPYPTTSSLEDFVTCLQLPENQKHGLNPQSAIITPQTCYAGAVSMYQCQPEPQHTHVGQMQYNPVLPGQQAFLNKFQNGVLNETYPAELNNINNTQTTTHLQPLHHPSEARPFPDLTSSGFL
The note with it: Potency.

The nature of assay [16]: Fluorescence-based cell-based high throughput dose response assay for inhibitors of the interaction of nucleotide-binding oligomerization domain containing 2 (NOD2) and the receptor-interacting serine-threonine kinase 2 (RIPK2). It counts as functional. The conditions noted are these: Homo sapiens.
The target in the next assay is Beta Lactamase (Pseudomonas aeruginosa, UniProt Q932Y6). Briefly: beta-lactamase reporter inhibitor potency, dose response, artefact control for NOD2-RIPK2 interaction inhibitor project, BLA reporter cells, FRET fluorescence (AID 651552). It counts as functional, cell-based.
Chain of Beta Lactamase (Q932Y6 whole entry): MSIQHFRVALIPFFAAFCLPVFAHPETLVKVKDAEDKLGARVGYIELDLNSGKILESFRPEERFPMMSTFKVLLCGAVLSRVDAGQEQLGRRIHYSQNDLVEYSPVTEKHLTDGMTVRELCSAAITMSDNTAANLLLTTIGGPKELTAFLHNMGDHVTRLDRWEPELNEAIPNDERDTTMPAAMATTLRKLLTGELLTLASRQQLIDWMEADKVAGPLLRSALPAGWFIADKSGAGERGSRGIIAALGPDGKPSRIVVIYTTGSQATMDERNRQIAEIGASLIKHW

Calls of active or inactive are those of the source. Bounds are passed on as bounds.

Chain of Tyrosine-protein phosphatase non-receptor type 11 (Q06124 whole entry): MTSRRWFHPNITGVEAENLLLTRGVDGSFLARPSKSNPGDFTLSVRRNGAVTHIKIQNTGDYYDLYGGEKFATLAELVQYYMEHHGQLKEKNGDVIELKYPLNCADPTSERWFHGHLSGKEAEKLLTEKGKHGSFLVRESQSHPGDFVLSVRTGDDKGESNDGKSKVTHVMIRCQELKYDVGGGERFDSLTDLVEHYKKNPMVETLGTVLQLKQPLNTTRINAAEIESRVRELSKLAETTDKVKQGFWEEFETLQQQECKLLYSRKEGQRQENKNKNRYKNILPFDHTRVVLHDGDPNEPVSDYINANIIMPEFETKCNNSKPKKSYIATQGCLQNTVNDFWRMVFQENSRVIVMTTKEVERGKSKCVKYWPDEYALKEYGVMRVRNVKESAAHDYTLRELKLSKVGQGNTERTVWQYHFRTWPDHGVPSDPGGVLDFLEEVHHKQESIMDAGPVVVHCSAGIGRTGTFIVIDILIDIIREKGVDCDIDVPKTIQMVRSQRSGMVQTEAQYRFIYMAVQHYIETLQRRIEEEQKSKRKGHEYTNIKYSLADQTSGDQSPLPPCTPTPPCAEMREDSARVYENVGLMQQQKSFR
Chain of Dual specificity protein phosphatase 3 (P51452 whole entry): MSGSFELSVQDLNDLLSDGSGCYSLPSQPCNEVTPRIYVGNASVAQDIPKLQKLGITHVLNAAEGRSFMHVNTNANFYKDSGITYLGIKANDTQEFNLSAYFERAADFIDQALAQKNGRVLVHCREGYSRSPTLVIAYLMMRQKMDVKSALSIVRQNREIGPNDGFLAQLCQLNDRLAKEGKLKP
Chain of Photoreceptor-specific nuclear receptor (Q9Y5X4 whole entry): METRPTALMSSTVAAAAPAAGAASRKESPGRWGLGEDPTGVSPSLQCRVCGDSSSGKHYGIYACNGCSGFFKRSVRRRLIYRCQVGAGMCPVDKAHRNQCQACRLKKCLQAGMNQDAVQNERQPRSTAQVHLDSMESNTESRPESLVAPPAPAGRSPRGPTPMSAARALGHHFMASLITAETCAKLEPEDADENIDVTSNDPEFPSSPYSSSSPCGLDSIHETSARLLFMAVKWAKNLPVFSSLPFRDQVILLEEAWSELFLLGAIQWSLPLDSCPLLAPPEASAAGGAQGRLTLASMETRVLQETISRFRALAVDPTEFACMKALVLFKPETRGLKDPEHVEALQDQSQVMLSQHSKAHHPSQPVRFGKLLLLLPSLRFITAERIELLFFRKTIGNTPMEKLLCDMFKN
T6 sequence (P65502 whole entry): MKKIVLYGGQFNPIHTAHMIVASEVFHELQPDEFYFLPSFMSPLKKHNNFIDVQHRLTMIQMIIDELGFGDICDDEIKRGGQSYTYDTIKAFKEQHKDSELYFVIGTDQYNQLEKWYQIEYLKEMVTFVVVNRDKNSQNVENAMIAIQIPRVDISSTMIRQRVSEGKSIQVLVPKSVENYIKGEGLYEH

For the molecule `CC(=O)N1CCOc2ccc(S(=O)(=O)NCc3ccc(F)cc3)cc21`, the IC50 in assay [1] is 4.64 µM (active); in assay [2] it was 2.66 µM (active); in [3] it was 56.5 µM (inactive); in [4], 9.32 µM (active). Further, at Caspase-6, the AC50 (commonly the concentration at which the activity in the assay is half-maximal) is 11.2 µM (active).
Take `O=C(CCc1ccccc1)NNC(=O)c1ccc(NC(=O)c2ccccc2)cc1`: the IC50 in assay [1] was 3.98 µM (active); in assay [2], 3.9 µM (active); in assay [5], 31.2 µM (inactive); in [3], 17.3 µM (active); in assay [6] it was 24.9 µM (inactive); in assay [4], 6.27 µM (active).
For the molecule `O=C(NC(=O)N1CCN(c2cccc(Cl)c2)CC1)c1ccccc1`, the IC50 in assay [7] is 4.75 µM (active).
Consider `c1ccc(C(Cc2nc(-c3ccncc3)no2)c2ccccc2)cc1`, for which the IC50 in assay [7] is 5.57 µM (active); in assay [8] it was 14 µM (inactive).
For the molecule `Cc1cc(NCCCCCCCNc2cc(C)nc3cc([N+](=O)[O-])ccc23)c2ccc([N+](=O)[O-])cc2n1`, the IC50 in [9] is > 66.6 µM (inactive); in [10], 15.2 µM (active); in assay [11], 2.12 µM (active); in [13], 26.1 µM (active); in assay [14] it was 23.2 µM (active). Moreover, in assay [12], the 50% cytotoxic concentration (CC50) (commonly the concentration giving 50% cytotoxicity) is 37.8 µM (active).
On to `Nc1c(Cl)c(Cl)c(Cl)c(Cl)c1Cl`, for which the AC50 in [15] was 44.7 µM (inconclusive).
Turning to `CCOC(=O)[C@]12Cc3cc(Cl)ccc3[C@H]1N(C(C)C)C(=O)c1ccccc12`, the IC50 in [16] is 2.21 µM (active); on Beta Lactamase, 45.2 µM (inactive).
In the case of `O=[N+]([O-])c1cc(C(F)(F)F)c(Cl)c([N+](=O)[O-])c1Nc1ncc(C(F)(F)F)cc1Cl` [FLUAZINAM], in assay [15], the AC50 was 31.6 µM (inconclusive).
